Laboratory results as given in publication PMC6943726, “Discovery of 8-Amino-Substituted 2-Phenyl-2,7-Naphthyridinone Derivatives as New c-Kit/VEGFR-2 Kinase Inhibitors” (Molecules, 2019).

Experiments:
Assay type in all cases: biochemical
[1] = target: T1, VEGFR-2 (Homo sapiens, UniProt P35968); test: HTRF enzyme assay with recombinant VEGFR-2 kinase domain; settings: for IC50: purified recombinant VEGFR-2 kinase domain, HTRF, read-out: Inhibitory Activity, IC50, VEGFR-2
T1 construct: was evaluated using an enzyme assay with a recombinant kinase domain; purchased Invitrogen (Carlsbad, CA, US)
Method: (§1) The ability of the synthesized compounds to inhibit MET, c-Kit, and VEGFR-2 activities was evaluated using an enzyme assay with a recombinant kinase domain [29]. Based on the structure activity relationship (SAR) of MET inhibitors, we proposed that the removal of the key diaryl ether fragments in compound 3 would result in a loss of MET activity.
(§2) The ability of compounds to inhibit the activity of three kinases (MET, c-Kit, and VEGFR-2) was tested in vitro [30]. Enzyme assays were run in homogeneous time-resolved fluorescence (HTRF) format in 384-well microtiter plates using purified kinases purchased from Invitrogen (Carlsbad, CA, US). The HTRF KinEASE TK kit (contains substrate-biotin, antibody-cryptate, streptavidin-XL665, 5×enzymatic buffer, and detection buffer) was purchased from Cisbio (Codolet, France), and the kinase assays were performed according to the manufacturer’s instructions. After the kinases and the compounds incubated at 25~30 °C for 5 min, the reactions were initiated by the addition of 2 μL of mixed substrate solution (mixed solution of ATP (Sigma, Shanghai, China) and substrate-biotin). The final concentrations of kinases were at EC80 and the total reaction volume was 8 μL. Plates were incubated at 30 °C for 30~60 min, then the reactions were quenched by the addition 8 μL mixed detection solution (mixed solution of antibody-cryptate and streptavidin-XL665 in detection buffer). The fluorescence excitation wavelength was […]. The fluorescence at 665 nm (acceptor emission wavelength) and 620 nm (donor emission wavelength) was measured with a PHERAstar FS plate reader (BMG, LABTECH, Ortenberg, Germany) using a time delay of 50 μs. All kinase assays were conducted using ATP concentrations below the enzyme Kmapp and kinase-specific biotinylated substrate peptides.
(§3) The data for dose responses were plotted as percentage of inhibition calculated with the data reduction formula 100 × [1 − (U1 − C2)/(C1 − C2)] versus concentration of compound, where U is the emission ratio of 665 nm and 620 nm of test sample, C1 is the average value obtained for solvent control (2% DMSO), and C2 is the average value obtained for no reaction control (no kinase sample). Inhibition curves were generated by plotting percentage of control activity versus log10 of the concentration of each […]. The IC50 values were calculated by nonlinear regression with Graphpad Prism 5 (GraphPad Software, San Diego, CA).

[2] = target: T2, MET (Homo sapiens, UniProt P08581); test: HTRF enzyme assay with recombinant MET kinase domain; settings: purified recombinant MET kinase domain, read-out: Inhibitory Activity, IC50, MET
T2 construct: was evaluated using an enzyme assay with a recombinant kinase domain; purchased Invitrogen (Carlsbad, CA, US)
Method: as §1, §2, §3

[3] = target: T3, c-Kit (Homo sapiens, UniProt P10721); test: HTRF enzyme assay with recombinant c-Kit kinase domain; settings: for IC50: purified recombinant c-Kit kinase domain, HTRF, read-out: Inhibitory Activity, IC50, c-Kit
T3 construct: was evaluated using an enzyme assay with a recombinant kinase domain; purchased Invitrogen (Carlsbad, CA, US)
Method: as §1, §2, §3

T2 sequence (P08581 1078-1345 limits assumed): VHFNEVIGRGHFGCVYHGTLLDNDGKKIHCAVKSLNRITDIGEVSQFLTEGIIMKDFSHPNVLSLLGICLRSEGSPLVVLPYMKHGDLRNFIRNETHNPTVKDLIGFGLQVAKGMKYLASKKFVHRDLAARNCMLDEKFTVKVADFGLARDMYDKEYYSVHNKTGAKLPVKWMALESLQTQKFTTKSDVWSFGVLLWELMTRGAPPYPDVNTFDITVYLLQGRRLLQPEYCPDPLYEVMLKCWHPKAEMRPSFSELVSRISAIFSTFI
T3 sequence (P10721 589-937 limits assumed): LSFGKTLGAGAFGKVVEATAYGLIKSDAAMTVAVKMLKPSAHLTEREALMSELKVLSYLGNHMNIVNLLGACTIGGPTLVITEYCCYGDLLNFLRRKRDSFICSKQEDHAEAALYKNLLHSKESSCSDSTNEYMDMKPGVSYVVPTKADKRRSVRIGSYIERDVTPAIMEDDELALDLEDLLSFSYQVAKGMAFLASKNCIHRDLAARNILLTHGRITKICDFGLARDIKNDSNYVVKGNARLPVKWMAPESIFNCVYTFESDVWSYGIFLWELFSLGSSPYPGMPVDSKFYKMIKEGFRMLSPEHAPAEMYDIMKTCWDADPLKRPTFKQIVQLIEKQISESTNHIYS
T1 sequence (P35968 834-1162 limits assumed): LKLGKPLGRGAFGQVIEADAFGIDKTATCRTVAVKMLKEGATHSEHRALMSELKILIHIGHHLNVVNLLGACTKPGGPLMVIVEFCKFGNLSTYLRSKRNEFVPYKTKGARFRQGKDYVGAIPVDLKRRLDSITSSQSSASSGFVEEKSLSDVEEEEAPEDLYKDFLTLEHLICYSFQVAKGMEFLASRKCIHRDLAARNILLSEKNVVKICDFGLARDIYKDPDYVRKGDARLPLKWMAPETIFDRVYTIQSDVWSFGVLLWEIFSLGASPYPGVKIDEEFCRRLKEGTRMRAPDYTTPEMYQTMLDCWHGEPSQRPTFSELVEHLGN

| SMILES | IC50 [1] | IC50 [2] | IC50 [3] | VEGFR-2 potency, fold more potent than compound 3 ([1]; ratio of IC50 values vs compound 3) | c-Kit inhibitory activity (in words) [3] | c-Kit potency relative to compound 9g ([3]; compared with 9g) |
| --- | --- | --- | --- | --- | --- | --- |
| Cc1cc2ccnc(NCc3cccc4ccccc34)c2c(=O)n1-c1ccc(OC(F)(F)F)cc1 [Compound 10q, 3-methyl-8-((naphthalen-1-ylmethyl)amino)-2-(4-(trifluoromethoxy)phenyl)-2,7-naphthyridin-1(2H)-one] | > 5 µM | > 5 µM | > 5 µM | – | – | – |
| Cc1cc2ccnc(NCc3ccnc4ccccc34)c2c(=O)n1-c1ccc(OC(F)(F)F)cc1 [Compound 10r, 3-methyl-8-((quinolin-4-ylmethyl)amino)-2-(4-(trifluoromethoxy)phenyl)-2,7-naphthyridin-1(2H)-one] | 0.0317 µM | > 5 µM | 0.169 µM | 5.0–8.8 fold | slightly stronger c-Kit inhibitory activity than compound 3 | five-times more potent than compound 9g |
| Cc1cc2ccnc(NCc3ccnc4ccccc34)c2c(=O)n1-c1ccc(F)cc1F [Compound 10s, 2-(2,4-difluorophenyl)-3-methyl-8-((quinolin-4-ylmethyl)amino)-2,7-naphthyridin-1(2H)-one] | 0.887 µM | > 5 µM | > 5 µM | – | – | – |
